# “Also recorded” adds a separate entry of the source. Like-named read-outs stand apart in the source and are kept apart here.
# Assays:
# [1] = system: P. intermedia ATCC 25611; assay: MIC/MBC, cultivation in 2-fold dilution series; assay type: cell-based; details: Prevotella intermedia, ATCC25611, P.i. ATCC 25611; for MIC: lowest concentration without visible growth (turbidity); for MBC: no growth of subcultivation or reduction by 99.9%
# From the text: (§1) Bacteria expressing PgQC, TfQC and PiQC, namely P. gingivalis ATCC 33277, P. gingivalis M5-1-2, T. forsythia ATCC 42077, and P. intermedia ATCC 25611 were cultivated in the presence of compounds MWT-S-00275, MWT-S-00431, MWT-S-00441 and doxycycline in 2-fold dilution series. […]
# [2] = system: P. gingivalis M5-1-2; assay: MIC/MBC, cultivation in 2-fold dilution series; assay type: cell-based; details: Porphyromonas gingivalis, M512, P.g. M5-1-2; for MIC: lowest concentration without visible growth (turbidity); for MBC: no growth of subcultivation or reduction by 99.9%
# From the text: as §1
# [3] = system: P. gingivalis ATCC 33277; assay: MIC/MBC, cultivation in 2-fold dilution series; assay type: cell-based; details: Porphyromonas gingivalis, ATCC33277, P.g. ATCC 33277; for MIC: lowest concentration without visible growth (turbidity); for MBC: no growth of subcultivation or reduction by 99.9%
# From the text: as §1
# [4] = system: T. forsythia ATCC 42077; assay: MIC/MBC, cultivation in 2-fold dilution series; assay type: cell-based; details: Tannerella forsythia, ATCC42077, T.f. ATCC 42077; for MIC: lowest concentration without visible growth (turbidity); for MBC: no growth of subcultivation or reduction by 99.9%
# From the text: as §1
# [5] = system: bacterial QC (PgQC, PiQC, TfQC); assay: Inhibition of bacterial QC by metal chelators (fluorometric activity assay); assay type: biochemical, P. gingivalis, P. intermedia, T. forsythia; details: 250 μM H-Gln-AMC, increasing chelator concentrations, approx. 5 nM bacQC, 30° C.; all three bacterial QC (FIG. 7)
# Procedure: The fluorometrically activity assay was carried out as described above, except the presence of 1% (v/v) DMSO in the case of 1,10-phenanthroline or dipicolinic acid. Finally the residual bacQC activity was determined at steady state whereas bacQC without Chelators and +/−1% DMSO served as positive control.
# The reaction was initiated by adding approximately 5 nM bacQC. Black bars indicate residual PgQC activity, striped bars represent residual PiQC activity, and white bars display residual TfQC activity. All determinations were carried out at 30° C. as described above.
# [6] = biological target: T1, PgQC (Porphyromonas gingivalis, UniProt Q7MT37); assay: biochemical; set-up: species or system P. gingivalis
# T1 construct: Ki; RA (average residual QC activity of PgQC); other: c = 1 μM; other: c = 1.5 μM; other: c = 10 μM; other: c = 100 μM; other: c = 12 μM; RA; fused on or other part: N-terminal His tag from pET28a(+), cleaved off by thrombin before the enzymatic characterisation
# Procedure: The assay consists of varying concentration of the fluorogenic substrate and 0.5 U pyroglutaminyl aminopeptidase in 50 mM Tris-HCl, 50 mM NaCl at pH 8.0. After 10 minute incubation time at 30° C. reaction was initiated by addition of bacQC to a final volume of 125 μl reaction mixture. […] All determinations were carried out in 96 well microtiter plates (Fisher Scientific) at 30° C. using the FluoStar Optima (BMG Labtech).
# For inhibitor testing, the sample composition was the same as described above, except for the addition of the putative inhibitory compound. […] (∘) represents reaction without inhibitor. Determinations were carried out in 50 mM Tris-HCl, 50 mM NaCl pH 8.0 and 1% (v/v) DMSO at 30° C.
# RA refers to the average residual QC activity of PgQC measured in the presence of a concentration c of the respective compound. Ki refers to the average Ki values measured as described above, and Std(Ki) refers to the standard deviation of Ki.
# [7] = read-out: RA (average residual QC activity of PgQC)
# [8] = inhibition of PgQC, H-Gln-AMC, 50 mM Tris-HCl, 50 mM NaCl pH 8.0, 30° C., read-out: Ki (average)
compound,measurement,setting,value
"C[C@H]1c2cccc(O)c2C(=O)C2=C(O)[C@]3(O)C(=O)C(C(N)=O)=C(O)[C@@H](N(C)C)[C@@H]3[C@@H](O)[C@@H]21 [Doxy, Doxycycline, reference compound]",MIC,[1],≤ 3130 µg/mL
same,MBC,[1],12500 µg/mL
same,MIC,[2],≤ 3130 µg/mL
same,MIC,[3],≤ 3130 µg/mL
same,MBC,[3],50000 µg/mL
same,MIC,[4],≤ 3130 µg/mL
same,MBC,[4],6250 µg/mL
O=C(O)CN(CCN(CC(=O)O)CC(=O)O)CC(=O)O [EDTA],inhibitory effect on bacQC activity (residual activity),[5],does not influence bacQC activity
"CC1(C)c2nc[nH]c2CCN1Cc1cc(F)c(F)c(F)c1 [MWT-S-00275, 4,4-Dimethyl-5-[(3,4,5-trifluorophenyl)methyl]-6,7-dihydro-3H-imidazo[4,5-c]pyridine]",MIC,[1],500 µg/mL
same,MBC,[1],500 µg/mL
same,MIC,[2],500 µg/mL
same,MBC,[2],1000 µg/mL
same,MIC,[3],500 µg/mL
same,MBC,[3],1000 µg/mL
same,MIC,[4],250 µg/mL
same,MBC,[4],250 µg/mL
same,Ki,"[6]; Ki (average), inhibition of PgQC, H-Gln-AMC, 50 mM Tris-HCl, 50 mM NaCl pH 8.0, 30° C.",143 nM
same,remaining activity at 1 µM,[6]; [7],22%
"O=C(c1cc(Cl)cc(Cl)c1)N1CCc2[nH]cnc2C1 [MWT-S-00431, (3,5-Dichlorophenyl)(1,4,6,7-tetrahydro-5H-imidazo[4,5-c]pyridin-5-yl)methanone]",MIC,[1],125 µg/mL
same,MBC,[1],500 µg/mL
same,MIC,[2],1000 µg/mL
same,MBC,[2],2000 µg/mL
same,MIC,[3],1000 µg/mL
same,MBC,[3],2000 µg/mL
same,MIC,[4],1000 µg/mL
same,MBC,[4],2000 µg/mL
same,Ki,"[6]; Ki, Table 3 fit, competitive inhibition, 1% (v/v) DMSO, pH 8.0, 30° C.",104 nM
same,Ki,"[6]; Ki, exemplary determination (FIG. 4), 1% (v/v) DMSO, pH 8.0, 30° C.",104 ± 3.31 nM
same,Ki,[6]; [8],100 nM
same,remaining activity at 10 µM,[6]; [7],3%
"O=C(c1cc(F)c(F)c(F)c1)N1CCc2[nH]cnc2C1 [MWT-S-00435, (1,4,6,7-Tetrahydro-5H-imidazo[4,5-c]pyridin-5-yl)(3,4,5-trifluoro-phenyl)methanone]",Ki,[6]; [8],904 nM
same,remaining activity at 10 µM,[6]; [7],16%
"COc1cc(C(=O)N2CCc3[nH]cnc3C2)ccc1F [MWT-S-00436, (4-Fluoro-3-methoxyphenyl)(1,4,6,7-tetrahydro-5H-imidazo[4,5-c]pyridin-5-yl)methanone]",Ki,[6]; [8],1240 nM
same,remaining activity at 100 µM,[6]; [7],3%
"O=C(c1ccc2ccccc2c1)N1CCc2[nH]cnc2C1 [MWT-S-00440, Naphthalen-2-yl(1,4,6,7-tetrahydro-5H-imidazo[4,5-c]pyridin-5-yl)methanone]",Ki,[6]; [8],126 nM
same,remaining activity at 10 µM,[6]; [7],4%
"COc1cc(Cl)cc(C(=O)N2CCc3[nH]cnc3C2)c1 [MWT-S-00441, (3-Chloro-5-methoxyphenyl)(1,4,6,7-tetrahydro-5H-imidazo[4,5-c]pyridin-5-yl)methanone]",MIC,[1],63 µg/mL
same,MBC,[1],63 µg/mL
same,MIC,[2],1000 µg/mL
same,MBC,[2],> 2000 µg/mL
same,MIC,[3],1000 µg/mL
same,MBC,[3],2000 µg/mL
same,MIC,[4],2000 µg/mL
same,MBC,[4],2000 µg/mL
same,Ki,[6]; [8],87 nM
same,remaining activity at 1 µM,[6]; [7],17%
O=C(O)c1cccc(C(=O)O)n1 [dipicolinic acid],inhibitory effect on bacQC activity (residual activity),[5],strong inhibitory activity
"c1cnc2c(c1)ccc1cccnc12 [phenanthroline, 1,10-phenanthroline]",inhibitory effect on bacQC activity (residual activity),[5],strong inhibitory activity; also recorded: inhibited QC activity already at low mM range

# — US11186572B2, “Bacterial glutaminyl cyclases and inhibitors thereof for use in the treatment of periodontitis” (Fraunhofer-Gesellschaft zur Forderung der Angewandten …, priority 2016, dated 2021)
